Reference: patent publication US20240197608A1, “ACETYL SH-HEXAPEPTIDE-5 AMIDE ACETATE FOR USE IN THE TREATMENT OF HAIR LOSS DISORDERS AND AS A HAIR CARE AGENT” (L[…], S.A., priority 2021, published 2024)

Assays:
Assay type in all cases: cell-based
[1] = test system: Marker of Proliferation KI-67 (MKI67) gene expression; experiment: MKI67 gene expression in Human Follicle Dermal Papilla Cells (RT-qPCR); conditions: sample at 5% in culture medium, HFDPC, 24 hours of incubation
Procedure: (§1) This assay determined the beneficial effect of the acetyl sh-hexapeptide-5 amide acetate in the reduction of the hair loss in an in vitro assay, using Dermal Papilla cells and analysed through gene expression analysis. In particular, this test determinate the effect of the acetyl sh-hexapeptide-5 amide acetate alone or in combination with tripeptide-10 citrulline after 24 hours of treatment of Human Follicle Dermal Papilla Cells (HFDPC), and through analysis of Fibroblast Growth Factor-7 (FGF7), Insulin-like Growth Factor-1 (IGF1), and Marker of Proliferation KI-67 (MKI67) gene expression, using Quantitative reverse transcription PCR (RT-qPCR) method.
(§2) Analytical equipment: Microscope, incubator, refrigerated centrifuge, statistical analysis software, micropipettes, pipettes, propipette, rack, quantifier Nano-Drop spectrophotometer, laminar flow hood, QuantStudio 5 (Applied Biosystem) Quantitative real-time PCR, vortex, Burker chamber, heating block, thermocycler, and consumables. […]
(§3) Methodology: Cell number and viability were determined using a Burker chamber and Trypan-Blue staining. […]
(§4) After 24 hours of incubation, the medium was removed, and cells were washed with PBS (phosphate buffered saline). […] 2 min (Ramp rate: 4.4° C./sec) 1 cycle PCR Analysis Mode: Quantification 95° C. […] All data were statistically analysed.

[2] = test system: Fibroblast Growth Factor-7 (FGF7) gene expression; experiment: FGF7 gene expression in Human Follicle Dermal Papilla Cells (RT-qPCR); conditions: HFDPC, 24 hours of incubation
Procedure: as §1, §2, §3, §4

[3] = test system: Insulin-like Growth Factor-1 (IGF1) gene expression; experiment: IGF1 gene expression in Human Follicle Dermal Papilla Cells (RT-qPCR); conditions: HFDPC, 24 hours of incubation
Procedure: as §1, §2, §3, §4

acetyl sh-hexapeptide-5 amide acetate [sample 1]
MK167 gene expression increase compared to the untreated control [1]: 100.4±25.2% | Fibroblast Growth Factor-7 (FGF7) expression increase compared to the untreated control ([2]; sample at 1% in culture medium): 72.3±12.5% | Fibroblast Growth Factor-7 (FGF7) expression increase compared to the untreated control ([2]; sample at 5% in culture medium): 108.0±8.3% | IGF1 gene expression increase compared to the untreated control ([3]; sample at 1% in culture medium): 286.3±72.0% | IGF1 gene expression increase compared to the untreated control ([3]; sample at 5% in culture medium): 300.2±45.0%
